Results reported in patent US20150010932A1, “METHODS FOR ASSAYING PROTEIN-PROTEIN INTERACTIONS” (Salk Institute for Biological Studies, priority 2013, published 2015).
“Also recorded” adds a separate entry of the source. Bridges are numbered along the chain shown (N, C = ends). [ ]: non-standard residue; d: D form. Ahx = NCCCCCC(=O)O

What was measured:
Saos-2 cells = assay: Lactate dehydrogenase (LDH) leakage assay, Saos-2 cells; conditions: 25 μM and 10 μM, 6 hours, no serum
Excerpt: (§1) Accumulation of cytoplasmic lactate dehydrogenase (LDH) in the growth medium was used as a metric of cell membrane damage. LDH was detected by the CytoTox 96 Non-Radioactive Cytotoxicity Assay Kit (Promega). The 0.8% Triton X-100 treatment (Lysed) represents the maximum LDH leakage in this experiment and its reading was set to 100%. DMSO treatment served as the vehicle control and provided an indication of the presence of trace amounts of LDH in the serum and spontaneous LDH leakage from cells. The value obtained in the presence of DMSO was set to 0%. Data are shown as mean±SD (n=3). (B) Normal human fibroblasts (WS 1 cells) were treated exactly as in (A). Data are shown as mean±SD (n=3).S
(§2) Saos-2 and WS 1 cells were seeded into 96-well plates (20,000 cells per well) and incubated at 37° C. […] LDH leakage into media was detected by the CytoTox 96 Non-Radioactive Cytotoxicity Assay Kit (Promega G1780) per manufacture's protocol. Assay background was evaluated by using the LDH reading from wells containing only media and PPI antagonists with or without 10% FBS and was subtracted from the values obtained in the presence of the PPI antagonists. Cells lysed by 0.8% Triton X-100 (provided by the Kit), a concentration sufficient to ensure lyse all cells but low enough not to interfere with the LDH assay, represents the maximum LDH leakage in this experiment and its reading is set to 100%. […]

[1] = tested on: Normal human fibroblasts (WS1 cells); assay: Lactate dehydrogenase (LDH) leakage assay, WS1 fibroblasts; type: cell-based; conditions: 25 μM and 10 μM, 6 hours, no serum
Excerpt: as §1, §2

p53-Mdm4 complexes [2] = biological target: T1, p53-Mdm4 complexes (Homo sapiens, UniProt O15151); assay: BiLC assay using cell lysates, p53-Mdm4; type: biochemical; parameters: 2-111) was cloned into pLi317; cLuc (C-terminal split firefly luciferase fragment, amino acids 398-550; expressed in transfected cells; host or cells: Saos-2 134-354 (single-copy RMCE integration, doxycycline-induced); the lysate assay text says Saos-2 or U2OS reporter cells; conditions: no FBS
T1 sequence (O15151 2-111): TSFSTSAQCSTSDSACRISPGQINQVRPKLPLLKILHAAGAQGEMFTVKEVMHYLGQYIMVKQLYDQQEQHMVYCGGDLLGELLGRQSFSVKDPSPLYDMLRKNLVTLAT
Description: (A) Cell lysates obtained from nLuc-p53 and cLuc-Mdm2 or nLuc-p53 and cLuc-Mdm4 ReBiL expressing reporter cells were incubated with the indicated PPI antagonists in the absence of FBS in a 384-well plate at room temperature for 10 minutes. Steady-Glo luciferase reagent was added, and luminescence was measured in a Tecan M200 luminometer at 26° C. Data are shown as mean±standard deviation (n=3) and normalized to the luminescent reading of DMSO (set to 100%). (B) The BiLC lysate assays were identical to (A) except for the inclusion of 10% FBS. Data are shown as mean±standard deviation (n=3) and normalized to the luminescent reading of DMSO (set to 100%).
(§3) (A) Small molecule PPI antagonists were tested in p53-Mdm2 and p53-Mdm4 BiLC lysate assays without FBS. […] Data are shown as mean±standard deviation (n=3) and normalized to the luminescent reading of DMSO (set to 100%).
The 4× concentrated drugs diluted in DMEM/F12 media were pipetted into 384 well plates, 10 μl per well. Cells were washed with PBS-twice and lysed with PLB buffer (100 mM Tris-HCl pH 7.5; 0.5 mM EDTA; 150 mM NaCl; 0.1% Triton X-100, 1 mM sodium orthovanadate, 50 mM sodium fluoride, and Roche Complete Mini Protease Inhibitor Cocktail). […] The clear lysates were collected, diluted with DMEM (˜300 μl DMEM added into 100 μl lysates); 10 μl of diluted lysates were pipetted into each of the 384-wells, and the plates were incubated at room temperature for 10 minutes. 20 μl of luciferin reagents were added (Promega Bright-Glo E2620 or Steady-Glo E2520) into each well and luminescence was measured in a Tecan M200: integration time 0.5 seconds, 3˜5 minutes per cycle for total 30 minutes at 26° C.

p53-Mdm4 complexes [3] = biological target: T1, p53-Mdm4 complexes; assay: Real-time BiLC (ReBiL) assay in living cells, p53-Mdm4 reporter (Saos-2 134-354)
p53-Mdm2 complexes [4] = biological target: T2, p53-Mdm2 complexes (Homo sapiens, UniProt Q00987); assay: BiLC assay using cell lysates, p53-Mdm2; type: biochemical; conditions: no FBS
T2 construct: cLuc-linker-FLAG-Mdm2-108 (generated); cLuc (C-terminal split firefly luciferase fragment, amino acids 398-550); expressed in transfected cells; host or cells: Saos-2 134-385 (single-copy RMCE integration, doxycycline-induced); the lysate assay text says Saos-2 or U2OS reporter cells
T2 sequence (Q00987 2-108, one chain of several): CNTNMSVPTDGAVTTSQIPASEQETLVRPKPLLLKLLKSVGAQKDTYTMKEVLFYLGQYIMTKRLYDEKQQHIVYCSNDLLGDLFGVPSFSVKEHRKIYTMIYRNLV
Description: FIGS. 5A and 5B show a set of graphs illustrating that the BiLC lysate assay can be used to determine if serum prevents SAH peptides from disrupting p53-Mdm2 or p53-Mdm4 complexes. (A) Cell lysates obtained from nLuc-p53 and cLuc-Mdm2 or nLuc-p53 and cLuc-Mdm4 ReBiL expressing reporter cells were incubated with the indicated PPI antagonists in the absence of FBS in a 384-well plate at room temperature for 10 minutes. Steady-Glo luciferase reagent was added, and luminescence was measured in a Tecan M200 luminometer at 26° C. Data are shown as mean±standard deviation (n=3) and normalized to the luminescent reading of DMSO (set to 100%). (B) The BiLC lysate assays were identical to (A) except for the inclusion of 10% FBS. Data are shown as mean±standard deviation (n=3) and normalized to the luminescent reading of DMSO (set to 100%).
as §3
The 4× concentrated drugs diluted in DMEM/F12 media were pipetted into 384 well plates, 10 μl per well. […] 20 μl of luciferin reagents were added (Promega Bright-Glo E2620 or Steady-Glo E2520) into each well and luminescence was measured in a Tecan M200: integration time 0.5 seconds, 3˜5 minutes per cycle for total 30 minutes at 26° C.

p53-Mdm2 complexes [5] = biological target: T2, p53-Mdm2 complexes; assay: Real-time BiLC (ReBiL) assay in living cells, p53-Mdm2 reporter (Saos-2 134-385); type: cell-based
Description: Data shown are mean±standard deviation (n=8). […] Actin was used as a loading control. […] Luminescent signals were measured every 10 minutes for 10 hours in a Tecan-M200 at 37° C. Data shown are mean±standard deviation (n=4). […] The nLuc-p53 and cLuc-Mdm2 fusion proteins were detected by anti-FLAG and anti-HA antibodies, respectively, and Actin was used as a loading control.
At Time=0, the cells were washed with Dulbecco's modified Eagle medium (DMEM) once, and treated with new media containing different PPI antagonists and with or without 10% fetal bovine serum (FBS).
Two strategies were used to avert cytotoxicity or cell cycle arrest that could be generated by wild type p53 activation. First, p53 null Saos-2 cells were used as the host cell line for ReBiL reporters.
The Saos-2 ReBiL reporter cells were washed, trypsinized and cell numbers were determined. […] Supernatants were discarded, ReBiL reporter cells were resuspended with DMEM/F12 (phenol-red free) and 20 μl cells were pipetted into each well. […]
(a) The following protocol was used to evaluate small molecule PPI antagonists. […] The next day, the cells were washed, trypsinized, and cell numbers were determined. […] The plate was sealed with a MicroAmp Optical Adhesive Film, and luminescence was measured in a Tecan M200: integration time 2 seconds, 5˜10 minutes per cycle for total 6 hours at 37° C.

[6] = biological target: T3, Mdm2-Mdm4 N-terminal BiLC pair (Homo sapiens, UniProt O15151+Q00987); assay: Real-time BiLC assay in U2OS Mdm4-111/Mdm2-108 ReBiL reporter cells (U2OS 134-544); type: cell-based; conditions: U2OS 134-544 cells, compound with doxycycline at Time=0, 24 hours
T3 construct: linker-FLAG-Mdm2-108 (generated by; 2-111) was cloned into pLi223; cLuc (split firefly luciferase amino acids 398-550); nLuc (split firefly luciferase amino acids 1-416); expressed in transfected cells; host or cells: U2OS 134-544 (RMCE integration, doxycycline-induced)
T3 sequence (Q00987 2-108, one chain of several): as above
Excerpt: Data are shown as mean±standard deviation (n=6). […] Data are shown as mean±standard deviation (n=4).

[7] = living Saos-2 cells, doxycycline withdrawal, small molecule protocol

Molecule | LDH leakage (cell membrane damage), absence of serum (Saos-2 cells) | p53-Mdm4 disruption in lysate BiLC assay, without FBS (p53-Mdm4 complexes [2]) | p53-Mdm2 disruption in lysate BiLC assay, without FBS (p53-Mdm2 complexes [4]) | also measured
COc1ccc(C2=N[C@@H](c3ccc(Cl)cc3)[C@@H](c3ccc(Cl)cc3)N2C(=O)N2CCNC(=O)C2)c(OC(C)C)c1 [Nutlin-3a] | failed to induce membrane leakage | – | – | LDH leakage (cell membrane damage), absence of serum [1]: failed to induce membrane leakage
CCOc1cc(/C=C2/C(=O)N(c3ccccc3)N=C2C)cc(Cl)c1OCC(=O)OC [SJ-172550] | – | no activity; also recorded: poor p53/Mdm4 antagonist | no activity | p53-Mdm4 BiLC signal (newly synthesized complexes) (p53-Mdm4 complexes [3]; living Saos-2 134-354 cells, compound added with doxycycline at Time=0, 10% FBS): No decrease in p53-Mdm4 luciferase signal was detected; also recorded: virtually no activity
MI-219 | – | – | – | Ability to interfere selectively with p53-Mdm2 interaction (p53-Mdm2 complexes [5]; ReBiL strategy): interfere selectively with p53-Mdm2 interaction was confirmed
RO-5963 | – | no activity | no activity | Disruption of pre-formed p53-Mdm4 BiLC complexes (p53-Mdm4 complexes [3]; [7]): did not efficiently disrupt; Disruption of pre-formed p53-Mdm2 BiLC complexes (p53-Mdm2 complexes [5]; [7]): did not efficiently disrupt; Mdm2-Mdm4 N-terminal domain association (luminescent signal) [6]: increased luminescent signals were detected
cyclo(ACICRGNGYCG[Ahx]TSFAEYWNLLSGVCPKILQRCRRDSDCPG) (disulfide 2-26, 4-33, 10-39) [McoTi-1-PMI] | all except one (McoTi-1-PMI), damage cell membranes | – | – | –
